Assay results from ChEMBL document CHEMBL1201862, “PubChem BioAssay data set” (2004).
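Briefly, cells in 96-well plates were exposed to five compound concentrations for 48 h, and endpoints were estimated by linear interpolation. The concentration for 50% growth inhibition is given as GI50.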 The source made the active and inactive calls. Rule as the data show it: active = GI50 up to about 1.1 µM and inactive = higher.

What was measured:
Experiment in all cases: DTP human tumour cell line panel, 48 h
ACHN = tested on: ACHN
CAKI-1 = tested on: CAKI-1
COLO 205 = tested on: COLO 205
HCT-116 = tested on: HCT-116
HL-60 = tested on: HL-60
HOP-92 = tested on: HOP-92
K562 = tested on: K562
KM12 = tested on: KM12
MDA-MB-231 = tested on: MDA-MB-231
MDA-MB-435 = tested on: MDA-MB-435
OVCAR-3 = tested on: OVCAR-3
PC-3 = tested on: PC-3
RPMI-8226 = tested on: RPMI-8226
SF-268 = tested on: SF-268
SK-MEL-28 = tested on: SK-MEL-28
SK-MEL-2 = tested on: SK-MEL-2
SK-MEL-5 = tested on: SK-MEL-5
SNB-19 = tested on: SNB-19
SW-620 = tested on: SW-620
UACC-257 = tested on: UACC-257

With `CC1(C)N=C(N)N=C(N)N1c1cccc(OCc2cccc([N+](=O)[O-])c2)c1` the GI50 (ACHN) was > 100 µM (inactive), the GI50 (CAKI-1) was > 100 µM (inactive) and the GI50 (COLO 205) was 9.93 µM (inactive). The GI50 (HCT-116) was 5.41 µM (inactive), the GI50 (HL-60) was 9.95 µM (inactive) and the GI50 (HOP-92) was > 100 µM (inactive). The GI50 (K562) was 0.75 µM (active), the GI50 (KM12) was 17.1 µM (inactive) and the GI50 (MDA-MB-231) was > 53.8 µM (inactive). For the same molecule, the GI50 (MDA-MB-435) was 17.7 µM (inactive), the GI50 (OVCAR-3) was 22.9 µM (inactive) and the GI50 (PC-3) was 14.4 µM (inactive). For the same molecule, the GI50 (RPMI-8226) was 32.7 µM (inactive), the GI50 (SF-268) was 9.75 µM (inactive) and the GI50 (SK-MEL-28) was > 55.2 µM (inactive). The GI50 (SK-MEL-2) was > 64.3 µM (inactive), the GI50 (SK-MEL-5) was 4.86 µM (inactive) and the GI50 (SNB-19) was 11.5 µM (inactive). The GI50 (SW-620) was > 85.9 µM (inactive) and the GI50 (UACC-257) was 4.29 µM (inactive).
With `CCC/C(Cl)=N\OC(=O)Nc1ccc(OC(F)(F)F)cc1` the GI50 (ACHN) was 2.19 µM (inactive), the GI50 (CAKI-1) was 1.66 µM (inactive) and the GI50 (COLO 205) was 1.82 µM (inactive). The GI50 (HCT-116) was 9.4 µM (inactive), the GI50 (HL-60) was 3.25 µM (inactive) and the GI50 (HOP-92) was 2.22 µM (inactive). For the same molecule, the GI50 (K562) was 2.42 µM (inactive), the GI50 (KM12) was 9.48 µM (inactive) and the GI50 (MDA-MB-231) was 9.93 µM (inactive). For the same molecule, the GI50 (MDA-MB-435) was 22.1 µM (inactive), the GI50 (OVCAR-3) was 11.3 µM (inactive) and the GI50 (PC-3) was 17.7 µM (inactive). The GI50 (RPMI-8226) was 2.11 µM (inactive), the GI50 (SF-268) was 24.7 µM (inactive) and the GI50 (SK-MEL-28) was 19.6 µM (inactive). The GI50 (SK-MEL-2) was 17.6 µM (inactive), the GI50 (SK-MEL-5) was 5.4 µM (inactive) and the GI50 (SNB-19) was 30.3 µM (inactive). For the same molecule, the GI50 (SW-620) was 2.53 µM (inactive) and the GI50 (UACC-257) was 19.6 µM (inactive).
With `CC1(C)CC(=O)c2c(nc3c(ccc4ccccc43)c2-c2ccc(NC(=O)CCC(=O)Nc3ccc(-c4c5c(nc6c4ccc4ccccc46)CC(C)(C)CC5=O)cc3)cc2)C1` the GI50 (ACHN) was > 100 µM (inactive), the GI50 (CAKI-1) was > 100 µM (inactive) and the GI50 (COLO 205) was > 100 µM (inactive). For the same molecule, the GI50 (HCT-116) was > 100 µM (inactive), the GI50 (HL-60) was > 100 µM (inactive) and the GI50 (HOP-92) was > 100 µM (inactive). The GI50 (K562) was > 100 µM (inactive), the GI50 (KM12) was > 100 µM (inactive) and the GI50 (MDA-MB-231) was > 100 µM (inactive). For the same molecule, the GI50 (MDA-MB-435) was > 100 µM (inactive), the GI50 (OVCAR-3) was > 100 µM (inactive) and the GI50 (PC-3) was > 100 µM (inactive). For the same molecule, the GI50 (RPMI-8226) was > 100 µM (inactive), the GI50 (SF-268) was > 100 µM (inactive) and the GI50 (SK-MEL-28) was > 100 µM (inactive). For the same molecule, the GI50 (SK-MEL-2) was > 100 µM (inactive), the GI50 (SK-MEL-5) was > 100 µM (inactive) and the GI50 (SNB-19) was > 100 µM (inactive). The GI50 (SW-620) was > 100 µM (inactive) and the GI50 (UACC-257) was > 100 µM (inactive).
